Data on 26 compounds can be found in ChEMBL document CHEMBL5346921, “Discovery of novel benzamide derivatives bearing benzamidophenyl and phenylacetamidophenyl scaffolds as potential antitumor agents via targeting PARP-1” (Eur J Med Chem, 2023).

Data set [1] in a line: Selectivity index, ratio of IC50 for cytotoxicity against human NCM460 cells to IC50 for antiproliferative activity against human HCT-116 cells. The conditions noted are these: NCM460 cells and HCT-116 cells, read-out: Ratio IC50. The class given is toxicity, cell-based.
The nature of data set [2]: Cytotoxicity against human NCM460 cells assessed as reduction in cell viability incubated for 48 hrs by MTT assay. The class given is toxicity, cell-based. For orientation: Tetrazolium dyes change colour on reduction, which living cells bring about.
For a further data set, the system named is SW480. As to the kind of experiment: cells. As to conditions: Homo sapiens, SW480, 48 h.
Data set [3] has as its system HCT-116. As to the kind of experiment: cells. As to conditions: Homo sapiens, HCT-116, 48 h.
In a further data set the test system is DLD-1. Kind of data set: Antiproliferative activity against human DLD-1 cells assessed as reduction in cell viability incubated for 48 hrs by MTT assay. The class given is functional, cell-based. As to conditions: DLD-1, 48 h.
Data set [4] deals with Poly [ADP-ribose] polymerase 2 (Homo sapiens, UniProt Q9UGN5). Kind of data set: Inhibition of human PARP-2 by ELISA.
Poly [ADP-ribose] polymerase 2, sequence (Q9UGN5 whole entry): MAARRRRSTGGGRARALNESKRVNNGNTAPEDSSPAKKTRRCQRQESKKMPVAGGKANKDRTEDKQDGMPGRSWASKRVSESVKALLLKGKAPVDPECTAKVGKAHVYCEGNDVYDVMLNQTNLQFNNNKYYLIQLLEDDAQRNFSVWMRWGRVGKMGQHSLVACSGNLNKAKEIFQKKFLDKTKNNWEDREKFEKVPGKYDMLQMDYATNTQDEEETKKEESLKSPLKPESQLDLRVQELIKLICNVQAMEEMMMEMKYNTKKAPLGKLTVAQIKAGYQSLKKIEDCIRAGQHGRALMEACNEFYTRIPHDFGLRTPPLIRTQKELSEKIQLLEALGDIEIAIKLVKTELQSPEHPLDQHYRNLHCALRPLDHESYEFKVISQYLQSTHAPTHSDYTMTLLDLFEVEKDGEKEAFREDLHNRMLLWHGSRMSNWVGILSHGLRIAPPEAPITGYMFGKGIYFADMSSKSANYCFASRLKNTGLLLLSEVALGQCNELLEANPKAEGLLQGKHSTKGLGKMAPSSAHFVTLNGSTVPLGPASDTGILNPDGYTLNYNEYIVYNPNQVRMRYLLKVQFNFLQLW
In data set [5] the target is Poly [ADP-ribose] polymerase 1 (Homo sapiens, UniProt P09874). As to the kind of experiment: Inhibition of human PARP-1 by ELISA. On the technique in general: An ELISA detects its analyte on a solid surface through an enzyme-linked reagent.
Poly [ADP-ribose] polymerase 1, sequence (P09874 whole entry): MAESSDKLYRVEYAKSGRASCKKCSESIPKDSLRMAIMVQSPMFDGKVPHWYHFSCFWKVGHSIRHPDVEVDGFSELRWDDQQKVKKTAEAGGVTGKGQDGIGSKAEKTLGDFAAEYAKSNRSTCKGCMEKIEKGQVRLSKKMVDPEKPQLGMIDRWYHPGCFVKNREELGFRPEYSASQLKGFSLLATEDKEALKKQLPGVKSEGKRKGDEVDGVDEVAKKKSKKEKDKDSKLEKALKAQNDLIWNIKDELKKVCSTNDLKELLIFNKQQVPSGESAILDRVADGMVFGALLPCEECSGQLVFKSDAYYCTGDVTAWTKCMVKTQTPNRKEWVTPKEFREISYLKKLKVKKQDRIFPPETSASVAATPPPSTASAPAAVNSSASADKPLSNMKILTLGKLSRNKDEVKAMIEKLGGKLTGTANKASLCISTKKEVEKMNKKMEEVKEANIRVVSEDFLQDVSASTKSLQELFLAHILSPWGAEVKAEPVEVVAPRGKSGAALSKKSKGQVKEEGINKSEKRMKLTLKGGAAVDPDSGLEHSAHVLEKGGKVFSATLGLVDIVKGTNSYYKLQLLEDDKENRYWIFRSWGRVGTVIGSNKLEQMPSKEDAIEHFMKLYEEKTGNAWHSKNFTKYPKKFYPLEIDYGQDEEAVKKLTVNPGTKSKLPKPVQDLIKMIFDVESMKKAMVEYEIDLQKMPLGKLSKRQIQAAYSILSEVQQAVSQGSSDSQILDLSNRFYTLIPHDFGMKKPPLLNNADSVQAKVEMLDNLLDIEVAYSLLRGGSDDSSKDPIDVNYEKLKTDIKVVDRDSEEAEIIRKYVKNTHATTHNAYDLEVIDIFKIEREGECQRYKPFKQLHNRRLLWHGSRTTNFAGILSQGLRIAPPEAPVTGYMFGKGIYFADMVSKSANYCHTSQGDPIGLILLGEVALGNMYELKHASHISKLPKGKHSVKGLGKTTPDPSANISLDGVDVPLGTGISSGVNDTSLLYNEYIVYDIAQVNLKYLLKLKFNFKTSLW
Data set [6] has as its system HCT-116. As to the kind of experiment: Induction of mitochondrial membrane potential loss in human HCT-116 cells assessed as increase in monomer JC-1 level by measuring green fluorescence intensity at 15 uM incubated for 48 hrs by immunofluorescence analysis. The class given is functional, cell-based.
For data set [7], the system named is HCT-116. As to the kind of experiment: Induction of mitochondrial membrane potential loss in human HCT-116 cells assessed as JC-1 aggregate level by measuring red fluorescence intensity at 15 uM incubated for 48 hrs by JC-1 staining based flow cytometry (reference value: 96.72%). The class given is functional. (In general: A flow cytometer gives signals particle by particle.)

Data set [8] relates to HCT-116. As to the kind of experiment: Induction of mitochondrial membrane potential loss in human HCT-116 cells assessed as JC-1 monomer level by measuring green fluorescence intensity at 15 uM incubated for 48 hrs by JC-1 staining based flow cytometry (reference value: 3.28%). The class given is functional.

Activity calls are given as the source filed them. The calls are words filed in the database; no cut-off is given here.

Description for SW480: Antiproliferative activity against human SW480 cells assessed as reduction in cell viability incubated for 48 hrs by MTT assay

In general, IC50 refers to the point on the concentration scale where inhibition reaches its midpoint. As to `NC(=O)c1ccccc1OCc1cccc(NC(=O)Cc2cccc(Br)c2)c1`, the selectivity ratio in data set [1] was found to be 14.4. Further, the IC50 at 48 h in [2] worked out at 91.2 µM. For the same compound, the IC50 turned out to be 16 µM in the data set on SW480, 6.33 µM in the data set with HCT-116 [3] and 14.9 µM with DLD-1.

For the compound `NC(=O)c1ccccc1NCc1cccc(NC(=O)c2cccc(Br)c2)c1`, the selectivity ratio in data set [1] stood at 12.9. The IC50 at 48 h in data set [2] was found to be 73.5 µM. For the same compound, the values for the IC50 with SW480, in the data set on HCT-116 [3] and in the data set with DLD-1 were 5.08 µM, 5.69 µM and 10 µM, respectively.

As for `NC(=O)c1ccccc1NCc1cccc(NC(=O)Cc2cccc(Br)c2)c1`, the selectivity ratio in data set [1] was found to be 5.52. In addition, the half-maximal inhibitory concentration (IC50) at 48 h in data set [2] was determined as 129 µM. The IC50 in the data set with SW480 was 8.82 µM; in the data set on HCT-116 [3], 23.4 µM; in the data set with DLD-1, 22.8 µM.

Consider `NC(=O)c1ccccc1NCc1cccc(NC(=O)c2ccc(Cl)cc2)c1`, for which the selectivity ratio in data set [1] amounted to 12.5. The IC50 at 48 h in data set [2] is 563 µM. For the same compound, the IC50 in the data set on SW480 is 61.1 µM; in the data set on HCT-116 [3], 45.2 µM; with DLD-1 it was 11.8 µM.

As for `NC(=O)c1ccccc1OCc1cccc(NC(=O)c2ccccc2Cl)c1`, in data set [1], the selectivity ratio stood at 3.72. Also, the 50% inhibitory concentration (IC50) at 48 h in data set [2] was determined as 131 µM. Besides, the concentration for half-maximal inhibition (IC50) with SW480 turned out to be 11.6 µM; in the data set on HCT-116 [3] it was 35.3 µM; in the data set on DLD-1, 36.4 µM.

With `NC(=O)c1ccccc1OCc1cccc(NC(=O)Cc2ccccc2Cl)c1`, the selectivity ratio in data set [1] turned out to be 4.48. Besides, in [2], the IC50 at 48 h was determined as 98.7 µM. For the same compound, the values for the IC50 with SW480, with HCT-116 [3] and with DLD-1 were 12.7 µM, 22.1 µM and 18.7 µM, respectively.

`NC(=O)c1ccccc1OCc1cccc(NC(=O)c2ccc(Cl)cc2)c1`: the selectivity ratio in data set [1] was 1020. The IC50 at 48 h in data set [2] is 340 µM. Besides, the IC50 with SW480 was found to be 33.3 µM; in data set [4], 0.00436 µM; in the data set on HCT-116 [3], 0.33 µM; in data set [5], 0.00128 µM; in the data set on DLD-1, 13 µM.

Turning to `NC(=O)c1ccccc1NCc1cccc(NC(=O)c2cccc(Cl)c2)c1`, the selectivity ratio in data set [1] was 7.58. The half-inhibitory concentration (IC50) at 48 h in data set [2] is 200 µM. For the same compound, the IC50 came out at 62.4 µM in the data set with SW480, 26.4 µM with HCT-116 [3] and 45.4 µM with DLD-1.

Take `NC(=O)c1ccccc1NCc1cccc(NC(=O)Cc2ccc(Cl)cc2)c1`: in [1], the selectivity ratio was found to be 0.9. Moreover, the IC50 at 48 h in data set [2] is 14 µM. Also, the IC50 is 20.2 µM with SW480, 15.7 µM with HCT-116 [3] and 7.86 µM in the data set with DLD-1.

Take `NC(=O)c1ccccc1NCc1cccc(NC(=O)c2ccc(Br)cc2)c1`: the selectivity ratio in data set [1] was found to be 1.59. Besides, in data set [2], the IC50 at 48 h is 60.2 µM. For the same compound, the half-inhibitory concentration (IC50) with SW480 was determined as 37 µM; with HCT-116 [3], 37.9 µM; in the data set on DLD-1, 44.5 µM.

For the compound `NC(=O)c1ccccc1OCc1cccc(NC(=O)Cc2ccc(Cl)cc2)c1`, in data set [1], the selectivity ratio turned out to be 48.8. In addition, in data set [2], the 50% inhibitory concentration (IC50) at 48 h turned out to be 286 µM. Moreover, the IC50 with SW480 was found to be 27.4 µM; in the data set on HCT-116 [3], 5.86 µM; in the data set on DLD-1 it was 19.6 µM.

Turning to `NC(=O)c1ccccc1NCc1cccc(NC(=O)c2ccccc2Cl)c1`, the selectivity ratio in data set [1] stood at 2.78. In [2], the half-maximal inhibitory concentration (IC50) at 48 h is 105 µM. The 50% inhibitory concentration (IC50) in the data set with SW480 stood at 31.7 µM; with HCT-116 [3], 37.8 µM; in the data set on DLD-1, 9.14 µM.

On to `NC(=O)c1ccccc1NCc1cccc(NC(=O)Nc2cccc(Br)c2)c1`, for which the selectivity ratio in [1] was 17.9. Also, the IC50 at 48 h in [2] was found to be 154 µM. Further, the results for the IC50 in the data set with SW480, with HCT-116 [3] and in the data set with DLD-1 were 19.8 µM, 7.87 µM and 7.7 µM, respectively.

As for `NC(=O)c1ccccc1OCc1cccc(NC(=O)Nc2cccc(Br)c2)c1`, in [1], the selectivity ratio amounted to 12.5. For the same compound, the IC50 at 48 h in [2] turned out to be 134 µM. Moreover, the half-inhibitory concentration (IC50) worked out at 25.1 µM in the data set on SW480, 8.93 µM in the data set with HCT-116 [3] and 13.2 µM in the data set on DLD-1.

In the case of `NC(=O)c1ccccc1OCc1cccc(NC(=O)Cc2ccc(Br)cc2)c1`, in data set [1], the selectivity ratio is 19. Further, in [2], the IC50 at 48 h was 78 µM. Further, the concentration for half-maximal inhibition (IC50) came to 30.8 µM in the data set with SW480, 4.1 µM in the data set on HCT-116 [3] and 18.1 µM in the data set on DLD-1.

Turning to `NC(=O)c1ccccc1OCc1cccc(NC(=O)Cc2cccc(Cl)c2)c1`, in data set [1], the selectivity ratio was determined as 9.79. The half-maximal inhibitory concentration (IC50) at 48 h in data set [2] was 72.2 µM. For the same compound, the values for the IC50 with SW480, with HCT-116 [3] and in the data set with DLD-1 were 5.48 µM, 7.38 µM and 22 µM, respectively.

Consider `NC(=O)c1ccccc1OCc1cccc(NC(=O)c2cccc(Cl)c2)c1`, for which the selectivity ratio in [1] is 10.6. In addition, the IC50 at 48 h in data set [2] amounted to 419 µM. The half-maximal inhibitory concentration (IC50) was over 100 µM with SW480, 39.6 µM with HCT-116 [3] and 45.5 µM with DLD-1.

Regarding `NC(=O)c1ccccc1NCc1cccc(NC(=O)Cc2ccccc2Br)c1`, the selectivity ratio in data set [1] is 3.35. Also, the IC50 at 48 h in data set [2] amounted to 69.4 µM. Besides, the half-inhibitory concentration (IC50) in the data set with SW480 stood at 14 µM; in the data set with HCT-116 [3] it was 20.7 µM; with DLD-1 it was 11.7 µM.

As to `O=C(c1cc(Cc2n[nH]c(=O)c3ccccc23)ccc1F)N1CCN(C(=O)C2CC2)CC1` [OLAPARIB], the outcome in the data set with HCT-116 [6] was Active. Also, in [2], the half-maximal inhibitory concentration (IC50) at 48 h is 319 µM. Further, the Activity with HCT-116 [7] came out at 83.67%; in the data set on HCT-116 [8], 16.33%. Besides, the half-inhibitory concentration (IC50) is 39.3 µM in the data set with SW480, 26.4 µM in the data set with HCT-116 [3] and 13.7 µM with DLD-1.

In the case of `NC(=O)c1ccccc1OCc1cccc(NC(=O)Cc2ccccc2Br)c1`, the selectivity ratio in [1] was 22.6. Further, the 50% inhibitory concentration (IC50) at 48 h in data set [2] worked out at 183 µM. For the same compound, the IC50 was determined as 8.11 µM in the data set on SW480, 8.09 µM in the data set with HCT-116 [3] and 9.69 µM with DLD-1.

Regarding `NC(=O)c1ccccc1NCc1cccc(NC(=O)Cc2ccc(Br)cc2)c1`, the selectivity ratio in data set [1] is 2.62. Moreover, the IC50 at 48 h in data set [2] was found to be 51.3 µM. For the same compound, the half-inhibitory concentration (IC50) was 8.71 µM in the data set on SW480, 19.6 µM in the data set with HCT-116 [3] and 14 µM with DLD-1.

Regarding `NC(=O)c1ccccc1NCc1cccc(NC(=O)Cc2cccc(Cl)c2)c1`, the selectivity ratio in data set [1] worked out at 1.02. For the same compound, the IC50 at 48 h in data set [2] turned out to be 77.2 µM. Further, the IC50 in the data set on SW480 was over 100 µM; in the data set with HCT-116 [3] it was 75.9 µM; in the data set with DLD-1, 9.14 µM.

For `NC(=O)c1ccccc1NCc1cccc(NC(=O)c2ccccc2Br)c1`, the selectivity ratio in [1] was determined as 2.88. Further, the half-inhibitory concentration (IC50) at 48 h in data set [2] was 65.8 µM. Besides, the IC50 in the data set with SW480 worked out at 17.2 µM; with HCT-116 [3], 22.9 µM; in the data set with DLD-1, 35 µM.

As for `NC(=O)c1ccccc1NCc1cccc(NC(=O)Cc2ccccc2Cl)c1`, the selectivity ratio in data set [1] turned out to be 4.72. Besides, the IC50 at 48 h in [2] stood at 65 µM. Further, the IC50 in the data set with SW480 is 10.7 µM; in the data set on HCT-116 [3], 13.8 µM; with DLD-1, 29.4 µM.

Consider `NC(=O)c1ccccc1OCc1cccc(NC(=O)c2ccccc2Br)c1`, for which the selectivity ratio in data set [1] stood at 2.68. In addition, the concentration for half-maximal inhibition (IC50) at 48 h in [2] came to 161 µM. Also, the values for the 50% inhibitory concentration (IC50) in the data set with SW480, in the data set on HCT-116 [3] and in the data set with DLD-1 were 16.9 µM, 60.1 µM and 47 µM, respectively.

Take `NC(=O)c1ccccc1OCc1cccc(NC(=O)c2cccc(Br)c2)c1`: the IC50 at 48 h in [2] stood at 238 µM. The concentration for half-maximal inhibition (IC50) with SW480 was over 100 µM; in the data set on HCT-116 [3] it was over 100 µM; with DLD-1, 64.9 µM.
